In ChEMBL document CHEMBL4004838, “Design and synthesis of novel phenyl -1, 4-beta-carboline-hybrid molecules as potential anticancer agents” (Eur J Med Chem, 2017):

Columns and labels:
T47D = test: Growth inhibition of human T47D cells assessed as cell growth at 0.1 uM incubated for 48 hrs by sulforhodamine B assay relative to control; type: functional; details: read-out: Activity
UACC-257 [1] = test: Growth inhibition of human UACC257 cells assessed as cell growth at 1 uM incubated for 48 hrs by sulforhodamine B assay relative to control; type: functional; details: UACC-257, 48 h, read-out: Activity
NCI-H23 = test: Growth inhibition of human NCI-H23 cells assessed as cell growth at 100 uM incubated for 48 hrs by sulforhodamine B assay relative to control; type: functional; details: NCI-H23, 48 h, read-out: Activity
786-0 = test: Growth inhibition of human 786-0 cells assessed as cell growth at 0.1 uM incubated for 48 hrs by sulforhodamine B assay relative to control; type: functional; details: 786-0, 48 h, read-out: Activity
LOX IMVI = test: Growth inhibition of human LOXIMVI cells assessed as cell growth at 1 uM incubated for 48 hrs by sulforhodamine B assay relative to control; type: functional; details: read-out: Activity
MCF7 = test: Growth inhibition of human MCF7 cells incubated for 48 hrs by sulforhodamine B assay; type: functional; details: MCF7, 48 h; for TGI: read-out: pTGI (converted)
CAKI-1 = test: Growth inhibition of human Caki1 cells incubated for 48 hrs by sulforhodamine B assay; type: functional; details: CAKI-1, 48 h
PC-3 [2] = test: Growth inhibition of human PC3 cells assessed as cell growth at 100 uM incubated for 48 hrs by sulforhodamine B assay relative to control; type: functional; details: PC-3, 48 h, read-out: Activity
PC-3 [3] = test: Growth inhibition of human PC3 cells assessed as cell growth at 0.1 uM incubated for 48 hrs by sulforhodamine B assay relative to control; type: functional; details: PC-3, 48 h, read-out: Activity
BT-549 [4] = test: Growth inhibition of human BT549 cells incubated for 48 hrs by sulforhodamine B assay; type: functional; details: BT-549, 48 h
Malme-3M = test: Growth inhibition of human MALME-3M cells assessed as cell growth at 1 uM incubated for 48 hrs by sulforhodamine B assay relative to control; type: functional; details: read-out: Activity
IGROV-1 = test: Growth inhibition of human IGROV1 cells assessed as cell growth at 0.1 uM incubated for 48 hrs by sulforhodamine B assay relative to control; type: functional; details: IGROV-1, 48 h, read-out: Activity
NCI-H460 = test: Growth inhibition of human NCI-H460 cells incubated for 48 hrs by sulforhodamine B assay; type: functional; details: NCI-H460, 48 h
HOP-92 [5] = test: Growth inhibition of human HOP92 cells assessed as cell growth at 0.01 uM incubated for 48 hrs by sulforhodamine B assay relative to control; type: functional; details: HOP-92, 48 h, read-out: Activity
OVCAR-3 = test: Growth inhibition of human OVCAR3 cells assessed as cell growth at 1 uM incubated for 48 hrs by sulforhodamine B assay relative to control; type: functional; details: OVCAR-3, 48 h, read-out: Activity
RPMI-8226 [6] = test: Growth inhibition of human RPMI8226 cells assessed as cell growth at 1 uM incubated for 48 hrs by sulforhodamine B assay relative to control; type: functional; details: RPMI-8226, 48 h, read-out: Activity
UACC-257 [7] = test: Growth inhibition of human UACC257 cells assessed as cell growth at 100 uM incubated for 48 hrs by sulforhodamine B assay relative to control; type: functional; details: UACC-257, 48 h, read-out: Activity
HCT-116 = test: Growth inhibition of human HCT116 cells assessed as cell growth at 0.01 uM incubated for 48 hrs by sulforhodamine B assay relative to control; type: functional; details: HCT-116, 48 h, read-out: Activity
Albumin = Albumin (Bos taurus, UniProt P02769); test: Binding affinity to Bovine serum albumin assessed as at 0.10 to 1 uM by UV-Visible spectrophotometric method; type: ADME; details: cattle, isolated protein
RPMI-8226 [8] = test: Growth inhibition of human RPMI8226 cells incubated for 48 hrs by sulforhodamine B assay; type: functional; details: RPMI-8226, 48 h
MDA-MB-468 = test: Growth inhibition of human MDA-MB-468 cells assessed as cell growth at 1 uM incubated for 48 hrs by sulforhodamine B assay relative to control; type: functional; details: MDA-MB-468, 48 h, read-out: Activity
BT-549 [9] = test: Growth inhibition of human BT549 cells assessed as cell growth at 0.1 uM incubated for 48 hrs by sulforhodamine B assay relative to control; type: functional; details: BT-549, 48 h, read-out: Activity
SK-OV-3 = test: Growth inhibition of human SKOV3 cells incubated for 48 hrs by sulforhodamine B assay; type: functional; details: SK-OV-3, 48 h
MOLT-4 = test: Growth inhibition of human MOLT4 cells assessed as cell growth at 100 uM incubated for 48 hrs by sulforhodamine B assay relative to control; type: functional; details: MOLT-4, 48 h, read-out: Activity
SF-268 = test: Growth inhibition of human SF268 cells assessed as cell growth at 100 uM incubated for 48 hrs by sulforhodamine B assay relative to control; type: functional; details: SF-268, 48 h, read-out: Activity
U-251 = test: Growth inhibition of human U251 cells incubated for 48 hrs by sulforhodamine B assay; type: functional; details: U-251, 48 h
HOP-92 [10] = test: Growth inhibition of human HOP92 cells assessed as cell growth at 0.1 uM incubated for 48 hrs by sulforhodamine B assay relative to control; type: functional; details: HOP-92, 48 h, read-out: Activity
A549 [11] = test: Growth inhibition of human A549/ATCC cells assessed as cell growth at 1 uM incubated for 48 hrs by sulforhodamine B assay relative to control; type: functional; details: A549, 48 h, read-out: Activity
SF-295 = test: Growth inhibition of human SF295 cells assessed as cell growth at 100 uM incubated for 48 hrs by sulforhodamine B assay relative to control; type: functional; details: SF-295, 48 h, read-out: Activity
A549 [12] = test: Growth inhibition of human A549/ATCC cells assessed as cell growth at 100 uM incubated for 48 hrs by sulforhodamine B assay relative to control; type: functional; details: A549, 48 h, read-out: Activity
[13] = read-out: LC50 (the source's name)
[14] = read-out: pLC50 (the source's name) (converted)

Chain of Albumin (P02769 whole entry): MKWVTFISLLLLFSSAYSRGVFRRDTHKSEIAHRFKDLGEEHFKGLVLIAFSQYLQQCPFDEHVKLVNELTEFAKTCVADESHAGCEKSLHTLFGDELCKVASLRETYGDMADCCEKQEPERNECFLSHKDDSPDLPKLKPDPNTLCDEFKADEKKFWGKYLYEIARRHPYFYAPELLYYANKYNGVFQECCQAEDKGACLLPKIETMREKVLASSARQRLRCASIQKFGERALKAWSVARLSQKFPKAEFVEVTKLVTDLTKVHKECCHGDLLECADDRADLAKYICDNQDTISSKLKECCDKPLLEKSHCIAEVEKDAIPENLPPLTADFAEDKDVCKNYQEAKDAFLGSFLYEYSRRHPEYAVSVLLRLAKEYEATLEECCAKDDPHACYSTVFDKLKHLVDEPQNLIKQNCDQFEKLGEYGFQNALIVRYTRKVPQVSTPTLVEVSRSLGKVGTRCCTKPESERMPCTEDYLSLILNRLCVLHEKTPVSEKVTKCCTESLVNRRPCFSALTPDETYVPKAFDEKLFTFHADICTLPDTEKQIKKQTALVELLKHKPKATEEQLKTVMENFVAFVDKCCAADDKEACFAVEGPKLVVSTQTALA

c1ccc2[nH]c(-c3ccc(-c4nccc5c4[nH]c4ccccc45)cc3)nc2c1
growth at 0.1 µM (T47D): 89%
growth at 1 µM (UACC-257 [1]): 96%
growth at 100 µM (NCI-H23): 54%
growth at 0.1 µM (786-0): 92%
growth at 1 µM (LOX IMVI): 81%
GI50 (MCF7; read-out: GI50): 3.56 µM
CC50 (MCF7; [13]): 8.86 µM
GI50 (MCF7; read-out: pGI50 (converted)): 3.55 µM
CC50 (MCF7; [14]): 89.1 µM
TGI (MCF7): 17.4 µM
GI50 (CAKI-1; read-out: GI50): 2.41 µM
CC50 (CAKI-1; [13]): 3.68 µM
TGI (CAKI-1; read-out: TGI): 7.11 µM
GI50 (CAKI-1; read-out: pGI50 (converted)): 2.4 µM
CC50 (CAKI-1; [14]): 37.2 µM
TGI (CAKI-1; read-out: pTGI (converted)): 7.08 µM
growth at 100 µM (PC-3 [2]): 71%
growth at 0.1 µM (PC-3 [3]): 100%
GI50 (BT-549 [4]; read-out: GI50): 2.12 µM
CC50 (BT-549 [4]; [13]): 7.21 µM
TGI (BT-549 [4]; read-out: TGI): 5.42 µM
GI50 (BT-549 [4]; read-out: pGI50 (converted)): 2.14 µM
CC50 (BT-549 [4]; [14]): 72.4 µM
TGI (BT-549 [4]; read-out: pTGI (converted)): 5.37 µM
growth at 1 µM (Malme-3M): 96%
growth at 0.1 µM (IGROV-1): 99%
GI50 (NCI-H460; read-out: GI50): 3.03 µM
CC50 (NCI-H460; [13]): > 1 µM
TGI (NCI-H460; read-out: TGI): 9.8 µM
GI50 (NCI-H460; read-out: pGI50 (converted)): 3.02 µM
CC50 (NCI-H460; [14]): > 100 µM
TGI (NCI-H460; read-out: pTGI (converted)): 9.77 µM
growth at 0.01 µM (HOP-92 [5]): 85%
growth at 1 µM (OVCAR-3): 92%
growth at 1 µM (RPMI-8226 [6]): 106%
growth at 100 µM (UACC-257 [7]): 81%
growth at 0.01 µM (HCT-116): 92%
Activity (Albumin): Active
GI50 (RPMI-8226 [8]; read-out: GI50): 2.48 µM
CC50 (RPMI-8226 [8]; [13]): > 1 µM
TGI (RPMI-8226 [8]; read-out: TGI): 5.61 µM
GI50 (RPMI-8226 [8]; read-out: pGI50 (converted)): 2.45 µM
CC50 (RPMI-8226 [8]; [14]): > 100 µM
TGI (RPMI-8226 [8]; read-out: pTGI (converted)): 5.62 µM
growth at 1 µM (MDA-MB-468): 98%
growth at 0.1 µM (BT-549 [9]): 92%
CC50 (SK-OV-3; [13]): 4.66 µM
GI50 (SK-OV-3; read-out: pGI50 (converted)): 4.37 µM
CC50 (SK-OV-3; [14]): 46.8 µM
TGI (SK-OV-3; read-out: pTGI (converted)): 15.8 µM
growth at 100 µM (MOLT-4): 54%
growth at 100 µM (SF-268): 52%
GI50 (U-251; read-out: GI50): 2.74 µM
LC50 (U-251; read-out: LC50): 4.05 µM
TGI (U-251; read-out: TGI): 7.83 µM
GI50 (U-251; read-out: pGI50 (converted)): 2.75 µM
LC50 (U-251; read-out: pLC50 (converted)): 40.7 µM
TGI (U-251; read-out: pTGI (converted)): 7.76 µM
growth at 0.1 µM (HOP-92 [10]): 93%
growth at 1 µM (A549 [11]): 96%
growth at 100 µM (SF-295): 71%
growth at 100 µM (A549 [12]): 58%

c1ccc2c3c([nH]c2c1)C(c1ccc(C2NCCc4c2[nH]c2ccccc42)cc1)NCC3 (racemic)
growth at 0.1 µM (T47D): 86%
growth at 1 µM (UACC-257 [1]): 103%
growth at 100 µM (NCI-H23): 86%
growth at 0.1 µM (786-0): 103%
growth at 1 µM (LOX IMVI): 48%
CC50 (MCF7; [13]): 6.1 µM
GI50 (MCF7; read-out: pGI50 (converted)): 0.389 µM
CC50 (MCF7; [14]): 6.17 µM
TGI (MCF7): 1.74 µM
GI50 (CAKI-1; read-out: GI50): 1.66 µM
CC50 (CAKI-1; [13]): 9.82 µM
TGI (CAKI-1; read-out: TGI): 4.03 µM
GI50 (CAKI-1; read-out: pGI50 (converted)): 1.66 µM
CC50 (CAKI-1; [14]): 9.77 µM
TGI (CAKI-1; read-out: pTGI (converted)): 4.07 µM
growth at 100 µM (PC-3 [2]): -93%
growth at 0.1 µM (PC-3 [3]): 94%
GI50 (BT-549 [4]; read-out: GI50): 1.11 µM
CC50 (BT-549 [4]; [13]): 5.37 µM
TGI (BT-549 [4]; read-out: TGI): 2.44 µM
GI50 (BT-549 [4]; read-out: pGI50 (converted)): 11.2 µM
CC50 (BT-549 [4]; [14]): 53.7 µM
TGI (BT-549 [4]; read-out: pTGI (converted)): 24.5 µM
growth at 1 µM (Malme-3M): 82%
growth at 0.1 µM (IGROV-1): 92%
GI50 (NCI-H460; read-out: GI50): 2.21 µM
CC50 (NCI-H460; [13]): 9.12 µM
TGI (NCI-H460; read-out: TGI): 4.49 µM
GI50 (NCI-H460; read-out: pGI50 (converted)): 0.219 µM
CC50 (NCI-H460; [14]): 0.912 µM
TGI (NCI-H460; read-out: pTGI (converted)): 4.47 µM
growth at 0.01 µM (HOP-92 [5]): 86%
growth at 1 µM (OVCAR-3): 65%
growth at 1 µM (RPMI-8226 [6]): 2%
growth at 100 µM (UACC-257 [7]): 94%
growth at 0.01 µM (HCT-116): 91%
Activity (Albumin): Active
CC50 (RPMI-8226 [8]; [13]): 1.23 µM
GI50 (RPMI-8226 [8]; read-out: pGI50 (converted)): 0.339 µM
CC50 (RPMI-8226 [8]; [14]): 12.3 µM
TGI (RPMI-8226 [8]; read-out: pTGI (converted)): 1.1 µM
growth at 1 µM (MDA-MB-468): 11%
growth at 0.1 µM (BT-549 [9]): 95%
GI50 (SK-OV-3; read-out: GI50): 1.88 µM
CC50 (SK-OV-3; [13]): 9.12 µM
TGI (SK-OV-3; read-out: TGI): 4.14 µM
GI50 (SK-OV-3; read-out: pGI50 (converted)): 1.86 µM
CC50 (SK-OV-3; [14]): 9.12 µM
TGI (SK-OV-3; read-out: pTGI (converted)): 4.17 µM
growth at 100 µM (MOLT-4): 76%
growth at 100 µM (SF-268): 83%
GI50 (U-251; read-out: pGI50 (converted)): 0.324 µM
TGI (U-251; read-out: pTGI (converted)): 1.1 µM
growth at 0.1 µM (HOP-92 [10]): 87%
growth at 1 µM (A549 [11]): 56%
growth at 100 µM (SF-295): 89%
growth at 100 µM (A549 [12]): 87%
